Reference: US6872690B2, “Herbicidal 2-alkynyl-pyri (mi) dines” (WYETH, priority 2001, dated 2005)

Columns and labels:
Format in all cases: in vivo
[1] = tested on: Abutilon theophrasti; assay: Pre-emergence test; details: 3 weeks after treatment
How it was run: (§1)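 Freshly sown seeds in horticultural loam were sprayed with compound dissolved in acetone with 0.4% w/w alkylphenol/ethylene oxide surfactant, diluted with water, at 0.013, 0.025, 0.100 or 0.400 kg a.i./ha in 900 L/ha. Untreated sown soil served as control; pots were rated 2 to 4 weeks after treatment.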

[2] = tested on: Alopecurus myosuroides; assay: Pre-emergence test; details: 3 weeks after treatment
How it was run: as §1

[3] = tested on: Ambrosia artemisifolia; assay: Pre-emergence test; details: 3 weeks after treatment
How it was run: as §1

[4] = tested on: Cassia obtusifolia; assay: Pre-emergence test; details: 3 weeks after treatment
How it was run: as §1

[5] = tested on: Echinochloa crus-galli; assay: Pre-emergence test; details: 3 weeks after treatment
How it was run: as §1

[6] = tested on: Glycine max; assay: Pre-emergence test; details: 3 weeks after treatment
How it was run: as §1

[7] = tested on: Ipomoea hederacea; assay: Pre-emergence test; details: 3 weeks after treatment
How it was run: as §1

[8] = tested on: Matricaria inodora; assay: Pre-emergence test; details: 3 weeks after treatment
How it was run: as §1

[9] = tested on: Setaria viridis; assay: Pre-emergence test; details: 3 weeks after treatment
How it was run: as §1

[10] = tested on: Triticum aestivum; assay: Pre-emergence test; details: 3 weeks after treatment
How it was run: as §1

[11] = tested on: Zea mays; assay: Pre-emergence test; details: 3 weeks after treatment
How it was run: as §1

[12] = tested on: Abutilon theophrasti; assay: Post-emergence herbicidal activity test; details: 2-4 weeks after treatment
How it was run: (§2)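 Injury is scored on a rating scale 2 to 4 weeks after spraying. Seedlings receive test compound formulated from acetone solutions diluted with water, applied at about 0.025 to 0.4 kg per hectare per pot, and are then grown on greenhouse benches.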

[13] = tested on: Alopecurus myosuroides; assay: Post-emergence herbicidal activity test; details: 2-4 weeks after treatment
How it was run: as §2

[14] = tested on: Ambrosia artemisifolia; assay: Post-emergence herbicidal activity test; details: 2-4 weeks after treatment
How it was run: as §2

[15] = tested on: Echinochloa crus-galli; assay: Post-emergence herbicidal activity test; details: 2-4 weeks after treatment
How it was run: as §2

[16] = tested on: Glycine max; assay: Post-emergence herbicidal activity test; details: 2-4 weeks after treatment
How it was run: as §2

[17] = tested on: Ipomoea hederacea; assay: Post-emergence herbicidal activity test; details: 2-4 weeks after treatment
How it was run: as §2

[18] = tested on: Matricaria inodora; assay: Post-emergence herbicidal activity test; details: 2-4 weeks after treatment
How it was run: as §2

[19] = tested on: Setaria viridis; assay: Post-emergence herbicidal activity test; details: 2-4 weeks after treatment
How it was run: as §2

[20] = tested on: Triticum aestivum; assay: Post-emergence herbicidal activity test; details: 2-4 weeks after treatment
How it was run: as §2

[21] = tested on: Zea mays; assay: Post-emergence herbicidal activity test; details: 2-4 weeks after treatment
How it was run: as §2

SMILES: Cc1cc(C#Cc2ccc(F)cc2)nc(Oc2cc(C(F)(F)F)nn2C)c1 [Example 2, 4-methyl-6-(4-fluorophenylethynyl)-2-(1-methyl-3-trifluoromethylpyrazol-5-yloxy)-pyridine]
- Assessment (pre-emergence application) ABUTH ([1]; 0.013 kg/ha): 0 (0-No effect)
- Assessment (pre-emergence application) ABUTH ([1]; 0.025 kg/ha): 1 (1-Trace effect)
- Assessment (pre-emergence application) ABUTH ([1]; 0.100 kg/ha): 2 (2-Slight effect)
- Assessment (pre-emergence application) ABUTH ([1]; 0.400 kg/ha): 3 (3-Moderate effect)
- Assessment (pre-emergence application) ALOMY ([2]; 0.013 kg/ha): 1 (1-Trace effect)
- Assessment (pre-emergence application) ALOMY ([2]; 0.025 kg/ha): 2 (2-Slight effect)
- Assessment (pre-emergence application) ALOMY ([2]; 0.100 kg/ha): 5 (5-Definite injury)
- Assessment (pre-emergence application) ALOMY ([2]; 0.400 kg/ha): 8 (8-Approaching complete kill)
- Assessment (pre-emergence application) MBEL ([3]; 0.013 kg/ha): 0 (0-No effect)
- Assessment (pre-emergence application) MBEL ([3]; 0.025 kg/ha): 2 (2-Slight effect)
- Assessment (pre-emergence application) MBEL ([3]; 0.100 kg/ha): 6 (6-Herbicidal effect)
- Assessment (pre-emergence application) MBEL ([3]; 0.400 kg/ha): 9 (9-Complete kill)
- Assessment (pre-emergence application) CASOB ([4]; 0.013 kg/ha): 0 (0-No effect)
- Assessment (pre-emergence application) CASOB ([4]; 0.025 kg/ha): 1 (1-Trace effect)
- Assessment (pre-emergence application) CASOB ([4]; 0.100 kg/ha): 3 (3-Moderate effect)
- Assessment (pre-emergence application) CASOB ([4]; 0.400 kg/ha): 7 (7-Good herbicidal effect)
- Assessment (pre-emergence application) ECHCG ([5]; 0.013 kg/ha): 1 (1-Trace effect)
- Assessment (pre-emergence application) ECHCG ([5]; 0.025 kg/ha): 2 (2-Slight effect)
- Assessment (pre-emergence application) ECHCG ([5]; 0.100 kg/ha): 6 (6-Herbicidal effect)
- Assessment (pre-emergence application) ECHCG ([5]; 0.400 kg/ha): 7 (7-Good herbicidal effect)
- Assessment (pre-emergence application) GLXMA ([6]; 0.013 kg/ha): 0 (0-No effect)
- Assessment (pre-emergence application) GLXMA ([6]; 0.025 kg/ha): 1 (1-Trace effect)
- Assessment (pre-emergence application) GLXMA ([6]; 0.100 kg/ha): 2 (2-Slight effect)
- Assessment (pre-emergence application) GLXMA ([6]; 0.400 kg/ha): 3 (3-Moderate effect)
- Assessment (pre-emergence application) IPOHE ([7]; 0.013 kg/ha): 0 (0-No effect)
- Assessment (pre-emergence application) IPOHE ([7]; 0.025 kg/ha): 1 (1-Trace effect)
- Assessment (pre-emergence application) IPOHE ([7]; 0.100 kg/ha): 2 (2-Slight effect)
- Assessment (pre-emergence application) IPOHE ([7]; 0.400 kg/ha): 6 (6-Herbicidal effect)
- Assessment (pre-emergence application) MATIN ([8]; 0.013 kg/ha): 1 (1-Trace effect)
- Assessment (pre-emergence application) MATIN ([8]; 0.025 kg/ha): 5 (5-Definite injury)
- Assessment (pre-emergence application) MATIN ([8]; 0.100 kg/ha): 9 (9-Complete kill)
- Assessment (pre-emergence application) MATIN ([8]; 0.400 kg/ha): 9 (9-Complete kill)
- Assessment (pre-emergence application) SETVI ([9]; 0.013 kg/ha): 3 (3-Moderate effect)
- Assessment (pre-emergence application) SETVI ([9]; 0.025 kg/ha): 4 (4-Injury)
- Assessment (pre-emergence application) SETVI ([9]; 0.100 kg/ha): 8 (8-Approaching complete kill)
- Assessment (pre-emergence application) SETVI ([9]; 0.400 kg/ha): 9 (9-Complete kill)
- Assessment (pre-emergence application) TRZWA ([10]; 0.013 kg/ha): 0 (0-No effect)
- Assessment (pre-emergence application) TRZWA ([10]; 0.025 kg/ha): 0 (0-No effect)
- Assessment (pre-emergence application) TRZWA ([10]; 0.100 kg/ha): 2 (2-Slight effect)
- Assessment (pre-emergence application) TRZWA ([10]; 0.400 kg/ha): 4 (4-Injury)
- Assessment (pre-emergence application) ZEAMX ([11]; 0.013 kg/ha): 0 (0-No effect)
- Assessment (pre-emergence application) ZEAMX ([11]; 0.025 kg/ha): 0 (0-No effect)
- Assessment (pre-emergence application) ZEAMX ([11]; 0.100 kg/ha): 1 (1-Trace effect)
- Assessment (pre-emergence application) ZEAMX ([11]; 0.400 kg/ha): 2 (2-Slight effect)
- Post-emergence application ABUTH ([12]; 0.025 kg/ha): 2 (2-Slight effect)
- Post-emergence application ABUTH ([12]; 0.100 kg/ha): 6 (6-Herbicidal effect)
- Post-emergence application ABUTH ([12]; 0.400 kg/ha): 8 (8-Approaching complete kill)
- Post-emergence application ALOMY ([13]; 0.025 kg/ha): 2 (2-Slight effect)
- Post-emergence application ALOMY ([13]; 0.100 kg/ha): 3 (3-Moderate effect)
- Post-emergence application ALOMY ([13]; 0.400 kg/ha): 5 (5-Definite injury)
- Post-emergence application AMBEL ([14]; 0.025 kg/ha): 2 (2-Slight effect)
- Post-emergence application AMBEL ([14]; 0.100 kg/ha): 5 (5-Definite injury)
- Post-emergence application AMBEL ([14]; 0.400 kg/ha): 7 (7-Good herbicidal effect)
- Post-emergence application ECHCG ([15]; 0.025 kg/ha): 3 (3-Moderate effect)
- Post-emergence application ECHCG ([15]; 0.100 kg/ha): 4 (4-Injury)
- Post-emergence application ECHCG ([15]; 0.400 kg/ha): 8 (8-Approaching complete kill)
- Post-emergence application GLXMA ([16]; 0.025 kg/ha): 4 (4-Injury)
- Post-emergence application GLXMA ([16]; 0.100 kg/ha): 5 (5-Definite injury)
- Post-emergence application GLXMA ([16]; 0.400 kg/ha): 7 (7-Good herbicidal effect)
- Post-emergence application IPOHE ([17]; 0.025 kg/ha): 7 (7-Good herbicidal effect)
- Post-emergence application IPOHE ([17]; 0.100 kg/ha): 7 (7-Good herbicidal effect)
- Post-emergence application IPOHE ([17]; 0.400 kg/ha): 9 (9-Complete kill)
- Post-emergence application MATIN ([18]; 0.025 kg/ha): 2 (2-Slight effect)
- Post-emergence application MATIN ([18]; 0.100 kg/ha): 5 (5-Definite injury)
- Post-emergence application MATIN ([18]; 0.400 kg/ha): 8 (8-Approaching complete kill)
- Post-emergence application SETVI ([19]; 0.025 kg/ha): 4 (4-Injury)
- Post-emergence application SETVI ([19]; 0.100 kg/ha): 7 (7-Good herbicidal effect)
- Post-emergence application SETVI ([19]; 0.400 kg/ha): 9 (9-Complete kill)
- Post-emergence application TRZWA ([20]; 0.025 kg/ha): 2 (2-Slight effect)
- Post-emergence application TRZWA ([20]; 0.100 kg/ha): 2 (2-Slight effect)
- Post-emergence application TRZWA ([20]; 0.400 kg/ha): 3 (3-Moderate effect)
- Post-emergence application ZEAMX ([21]; 0.025 kg/ha): 1 (1-Trace effect)
- Post-emergence application ZEAMX ([21]; 0.100 kg/ha): 2 (2-Slight effect)
- Post-emergence application ZEAMX ([21]; 0.400 kg/ha): 2 (2-Slight effect)
